Test results: ChEMBL document CHEMBL3397025, “Guanine-based amphiphiles: synthesis, ion transport properties and biological activity” (Bioorg Med Chem, 2015); call rule not given here

Legend:
[1] = Cytotoxicity against human SH-SY5Y cells assessed as cell viability after 48 hrs by MTT assay; assay type: functional, cell-based
MCF7 = assay: Cytotoxicity against human MCF7 cells assessed as cell viability after 48 hrs by MTT assay; assay type: functional, cell-based; details: MCF7, 48 h
HaCaT = assay: Cytotoxicity against human HaCaT cells assessed as cell viability after 48 hrs by MTT assay; assay type: functional, cell-based
[2] = Ionophoric activity in large unilamellar vesicles containing 95:5 egg phosphatidylcholine and egg phosphatidylglycerol assessed as fluorescence emission at 25 degC after 10 mins by HPTS assay in presence of Na+; assay type: ADME
DU-145 = assay: Cytotoxicity against human DU145 cells assessed as cell viability after 48 hrs by MTT assay; assay type: functional, cell-based; details: DU-145, 48 h
[3] = Ionophoric activity in large unilamellar vesicles containing 95:5 egg phosphatidylcholine and egg phosphatidylglycerol assessed as fluorescence emission at 25 degC after 10 mins by HPTS assay in presence of K+; assay type: ADME
[4] = Ionophoric activity in large unilamellar vesicles containing 95:5 egg phosphatidylcholine and egg phosphatidylglycerol assessed as fluorescence emission at 25 degC after 10 mins by HPTS assay in presence of Cs+; assay type: ADME
[5] = Ionophoric activity in large unilamellar vesicles containing 95:5 egg phosphatidylcholine and egg phosphatidylglycerol assessed as fluorescence emission at 25 degC after 10 mins by HPTS assay in presence of I-; assay type: ADME
[6] = Ionophoric activity in large unilamellar vesicles containing 95:5 egg phosphatidylcholine and egg phosphatidylglycerol assessed as fluorescence emission at 25 degC after 10 mins by HPTS assay in presence of Rb+; assay type: ADME
[7] = Ionophoric activity in large unilamellar vesicles containing 95:5 egg phosphatidylcholine and egg phosphatidylglycerol assessed as fluorescence emission at 25 degC after 10 mins by HPTS assay in presence of Li+; assay type: ADME
[8] = Ionophoric activity in large unilamellar vesicles containing 95:5 egg phosphatidylcholine and egg phosphatidylglycerol assessed as fluorescence emission at 25 degC after 10 mins by HPTS assay in presence of Br-; assay type: ADME
[9] = Ionophoric activity in large unilamellar vesicles containing 95:5 egg phosphatidylcholine and egg phosphatidylglycerol assessed as fluorescence emission at 25 degC after 10 mins by HPTS assay in presence of F-; assay type: ADME
[10] = Ionophoric activity in large unilamellar vesicles containing 95:5 egg phosphatidylcholine and egg phosphatidylglycerol assessed as fluorescence emission at 25 degC after 10 mins by HPTS assay in presence of Cl-; assay type: ADME

SMILES | IC50 [1] [µM] | IC50 (MCF7) [µM] | IC50 (HaCaT) [µM] | Activity [2] | IC50 (DU-145) [µM] | Activity [3] | Activity [4] | Activity [5] | Activity [6] | Activity [7] | Activity [8] | Activity [9] | Activity [10]
CCCCCCCCCCCCCC(=O)O[C@@H]1[C@H](OC(=O)CCCCCCCCCCCCC)[C@@H](COC(=O)CCC(=O)OC[C@H]2O[C@H](O[C@H]3O[C@H](CO)[C@@H](O)[C@H](O)[C@H]3O)[C@H](O)[C@@H](O)[C@@H]2O)O[C@H]1n1cnc2c(=O)[nH]c(N)nc21 | 17 | – | – | – | – | – | – | – | – | – | – | – | –
COCCOCCOCCn1cnc2c(=O)[nH]c(N)nc21 | > 100 | > 100 | > 100 | Not Active | > 100 | Not Active | – | – | – | – | – | – | –
Nc1nc2c(ncn2C(=O)CCC(=O)OC[C@H]2O[C@H](O[C@H]3O[C@H](CO)[C@@H](O)[C@H](O)[C@H]3O)[C@H](O)[C@@H](O)[C@@H]2O)c(=O)[nH]1 | 5 | 1 | 80 | Active | 25 | Active | Active | Active | Active | Active | Active | Active | Active
